Measurements reported in US8017767B2, “Sucralose composition” (Tate & Lyle Public Limited Company, priority 2000, dated 2011).

Experiment: Accelerated stability test (50° C.) with pH stability test of sucralose sample solution
Type: physicochemical
Conditions: for Days to pH Failure / Ph Stability / Days to pH Failure (Final Product Moisture Content) / Days to pH Failure (Initial Moisture Content): 50° C.; for Days to pH Failure: WHIRLPAK polyethylene bags, failure = pH drop ≧1.0; for Initial pH: sample solution (5 g in 50 ml pH-adjusted water) at time zero; for Initial pH difference: sample solution vs pH-adjusted water at time zero; for Days to pH Failure (Final Product Moisture Content): final dried product; for Days to pH Failure (Final Product Moisture Content) / Days to pH Failure (Initial Moisture Content): Example 3; for Days to pH Failure (Initial Moisture Content): partially dried product at intermediate (initial) moisture content
From the text: Label seven 6 oz. and seven 18 oz. WHIRLPAK® polyethylene bags with indelible marker for each batch being tested for stability. Accurately weigh 25 g±0.01 g of sucralose into each 6 oz. WHIRLPAK® polyethylene bag. Heat or impulse seal the 6 oz. bag to ensure air tightness. Cut off any excess polyethylene at the top of the bag above the seal. Place the 6 oz. sealed bag into the 18 oz. bag and heat or impulse seal the 18 oz. bag to ensure air tightness. Roll down the top of the 18 oz. bag above the seal and bend the metal ties to form hooks.
Place the prepared bags into an oven stabilized at 50° C.±0.5° C. by hanging them from racks by the bag hooks. The bags must be freely suspended and not touch anything. Record the time samples are placed into the oven.
The pH stability test is conducted on the sucralose at time zero (the day the samples are placed in the oven, before the sucralose is exposed to elevated temperature) and every 24 hours until the batch being tested fails the test.
Place approximately 100 ml of deionized water into a 150 ml beaker. Using 0.1 N hydrochloric acid and/or 0.1 N sodium hydroxide, adjust the pH of the water to be between 5.8 and 6.0. Record the pH reading.
Accurately weigh 5 g±0.001 g of the product to be tested and transfer it to a 50 ml volumetric flask. Dissolve and bring to the mark by adding pH-adjusted water. If the sample to be tested is one that has been exposed to heat, remove one bag of the batch being tested from the oven and allow it to cool to room temperature before opening and sampling.
Pour the solution into a 100 ml beaker containing a stir bar, and slowly stir the solution on a magnetic stirrer. Immerse the pH electrode in the sample, allow the pH reading to stabilize, and record the pH reading of the sample. If no pH drop is observed after all the bags have been tested, the experiment is void and the test must repeated with a larger number of bags.
Record (to one decimal place) the pH of both the pH-adjusted water used and the sample sucralose solution. Subtract the pH of the […]. Report the result as (−) for a pH drop and (+) for a pH gain, e.g.:
The sample fails the test if there is a pH drop of 1.0 pH unit or more. The pH stability of the batch is defined as the number of days until the pH drop between the sample solution and that of the pH adjusted water is ≧1.0.
Samples of sucralose were tested for stability using the above procedures, but using bags of different moisture permeability. All other experimental details were the same. The TYVEK®/polyethylene bags are permeable; the WHIRLPAK® bags are less permeable. The A8080 bag consists of aluminum foil laminated to low-density polyethylene, which makes it very impermeable to moisture.

[1] = Example 1, sodium acetate in mother liquor varied
[2] = (−) pH drop, (+) pH gain, Example 1
[3] = Example 2, pH at crystallizer varied

Compound	Days to pH Failure [1] [Days]	Initial pH [1]	Initial pH difference [2]	further results
OC[C@H]1O[C@H](O[C@]2(CCl)O[C@H](CCl)[C@@H](O)[C@@H]2O)[C@H](O)[C@@H](O)[C@H]1Cl [Sample 31, 4,1′,6′-trichloro-4,1′,6′-trideoxy-galactosucrose]	5	6.03	+0.06	–
OC[C@H]1O[C@H](O[C@]2(CCl)O[C@H](CCl)[C@@H](O)[C@@H]2O)[C@H](O)[C@@H](O)[C@H]1Cl [Sample 24, 4,1′,6′-trichloro-4,1′,6′-trideoxy-galactosucrose]	5	6.02	+0.03	Ph Stability (package A8080 (aluminum foil laminated to low-density polyethylene), impermeable): 8 days; Ph Stability (package FF 91 TYVEK/Polyethylene, very permeable): 4 days; Ph Stability (package WHIRLPAK Polyethylene, moderately permeable): 5 days
OC[C@H]1O[C@H](O[C@]2(CCl)O[C@H](CCl)[C@@H](O)[C@@H]2O)[C@H](O)[C@@H](O)[C@H]1Cl [Sample 38, 4,1′,6′-trichloro-4,1′,6′-trideoxy-galactosucrose]	–	–	–	Days to pH Failure [3]: 6 Days; Days to pH Failure (Final Product Moisture Content): 6 Days; Days to pH Failure (Initial Moisture Content): 23 Days; Initial pH difference [3]: +0.17
OC[C@H]1O[C@H](O[C@]2(CCl)O[C@H](CCl)[C@@H](O)[C@@H]2O)[C@H](O)[C@@H](O)[C@H]1Cl [Sample 29, 4,1′,6′-trichloro-4,1′,6′-trideoxy-galactosucrose]	6	6.09	+0.12	–
OC[C@H]1O[C@H](O[C@]2(CCl)O[C@H](CCl)[C@@H](O)[C@@H]2O)[C@H](O)[C@@H](O)[C@H]1Cl [Sample 11, 4,1′,6′-trichloro-4,1′,6′-trideoxy-galactosucrose]	6	6.05	+0.10	–
OC[C@H]1O[C@H](O[C@]2(CCl)O[C@H](CCl)[C@@H](O)[C@@H]2O)[C@H](O)[C@@H](O)[C@H]1Cl [Sample 12, 4,1′,6′-trichloro-4,1′,6′-trideoxy-galactosucrose]	6	5.85	−0.10	–
OC[C@H]1O[C@H](O[C@]2(CCl)O[C@H](CCl)[C@@H](O)[C@@H]2O)[C@H](O)[C@@H](O)[C@H]1Cl [Sample 1, 4,1′,6′-trichloro-4,1′,6′-trideoxy-galactosucrose]	6	5.72	−0.20	–
OC[C@H]1O[C@H](O[C@]2(CCl)O[C@H](CCl)[C@@H](O)[C@@H]2O)[C@H](O)[C@@H](O)[C@H]1Cl [Sample 17, 4,1′,6′-trichloro-4,1′,6′-trideoxy-galactosucrose]	6	6.03	+0.10	–
OC[C@H]1O[C@H](O[C@]2(CCl)O[C@H](CCl)[C@@H](O)[C@@H]2O)[C@H](O)[C@@H](O)[C@H]1Cl [Sample 13, 4,1′,6′-trichloro-4,1′,6′-trideoxy-galactosucrose]	5	5.85	−0.10	–
OC[C@H]1O[C@H](O[C@]2(CCl)O[C@H](CCl)[C@@H](O)[C@@H]2O)[C@H](O)[C@@H](O)[C@H]1Cl [Sample 44, 4,1′,6′-trichloro-4,1′,6′-trideoxy-galactosucrose]	–	–	–	Days to pH Failure [3]: 6 Days; Initial pH difference [3]: −0.18
OC[C@H]1O[C@H](O[C@]2(CCl)O[C@H](CCl)[C@@H](O)[C@@H]2O)[C@H](O)[C@@H](O)[C@H]1Cl [Sample 9, 4,1′,6′-trichloro-4,1′,6′-trideoxy-galactosucrose]	7	6.19	+0.23	–
OC[C@H]1O[C@H](O[C@]2(CCl)O[C@H](CCl)[C@@H](O)[C@@H]2O)[C@H](O)[C@@H](O)[C@H]1Cl [Sample 21, 4,1′,6′-trichloro-4,1′,6′-trideoxy-galactosucrose]	6	6.05	+0.10	–
OC[C@H]1O[C@H](O[C@]2(CCl)O[C@H](CCl)[C@@H](O)[C@@H]2O)[C@H](O)[C@@H](O)[C@H]1Cl [Sample 33, 4,1′,6′-trichloro-4,1′,6′-trideoxy-galactosucrose]	–	–	–	Days to pH Failure [3]: 4 Days; stability at intermediate moisture contents compared with final moisture levels (crystallized with no pH control, intermediate moisture 3 to 5% vs final 0.05, 0.11, 0.21%): less stable at intermediate moisture contents (3 to 5%) than they were at their final moisture levels; Initial pH difference [3]: −0.94
OC[C@H]1O[C@H](O[C@]2(CCl)O[C@H](CCl)[C@@H](O)[C@@H]2O)[C@H](O)[C@@H](O)[C@H]1Cl [Sample 4, 4,1′,6′-trichloro-4,1′,6′-trideoxy-galactosucrose]	6	5.64	−0.28	–
OC[C@H]1O[C@H](O[C@]2(CCl)O[C@H](CCl)[C@@H](O)[C@@H]2O)[C@H](O)[C@@H](O)[C@H]1Cl [Sample 27, 4,1′,6′-trichloro-4,1′,6′-trideoxy-galactosucrose]	6	5.99	+0.03	–
OC[C@H]1O[C@H](O[C@]2(CCl)O[C@H](CCl)[C@@H](O)[C@@H]2O)[C@H](O)[C@@H](O)[C@H]1Cl [Sample 15, 4,1′,6′-trichloro-4,1′,6′-trideoxy-galactosucrose]	5	6.06	+0.13	–
OC[C@H]1O[C@H](O[C@]2(CCl)O[C@H](CCl)[C@@H](O)[C@@H]2O)[C@H](O)[C@@H](O)[C@H]1Cl [Sample 41, 4,1′,6′-trichloro-4,1′,6′-trideoxy-galactosucrose]	–	–	–	Days to pH Failure [3]: 5 Days; Days to pH Failure (Final Product Moisture Content): 5 Days; Days to pH Failure (Initial Moisture Content): 12 Days; Initial pH difference [3]: +0.40
OC[C@H]1O[C@H](O[C@]2(CCl)O[C@H](CCl)[C@@H](O)[C@@H]2O)[C@H](O)[C@@H](O)[C@H]1Cl [Sample 26, 4,1′,6′-trichloro-4,1′,6′-trideoxy-galactosucrose]	6	6.06	+0.10	–
OC[C@H]1O[C@H](O[C@]2(CCl)O[C@H](CCl)[C@@H](O)[C@@H]2O)[C@H](O)[C@@H](O)[C@H]1Cl [Sample 5, 4,1′,6′-trichloro-4,1′,6′-trideoxy-galactosucrose]	6	5.64	−0.28	–
OC[C@H]1O[C@H](O[C@]2(CCl)O[C@H](CCl)[C@@H](O)[C@@H]2O)[C@H](O)[C@@H](O)[C@H]1Cl [Sample 6, 4,1′,6′-trichloro-4,1′,6′-trideoxy-galactosucrose]	4	5.53	−0.39	–
OC[C@H]1O[C@H](O[C@]2(CCl)O[C@H](CCl)[C@@H](O)[C@@H]2O)[C@H](O)[C@@H](O)[C@H]1Cl [Sample 37, 4,1′,6′-trichloro-4,1′,6′-trideoxy-galactosucrose]	–	–	–	Days to pH Failure [3]: 5 Days; Days to pH Failure (Final Product Moisture Content): 5 Days; Days to pH Failure (Initial Moisture Content): 21 Days; Initial pH difference [3]: −0.06
OC[C@H]1O[C@H](O[C@]2(CCl)O[C@H](CCl)[C@@H](O)[C@@H]2O)[C@H](O)[C@@H](O)[C@H]1Cl [Sample 22, 4,1′,6′-trichloro-4,1′,6′-trideoxy-galactosucrose]	6	6.08	+0.09	–
OC[C@H]1O[C@H](O[C@]2(CCl)O[C@H](CCl)[C@@H](O)[C@@H]2O)[C@H](O)[C@@H](O)[C@H]1Cl [Sample 30, 4,1′,6′-trichloro-4,1′,6′-trideoxy-galactosucrose]	5	5.95	−0.02	–
